Reference: patent EP4782444A1, “CRYSTAL FORM OF PYRIMIDINE ANILINE COMPOUND, PREPARATION METHOD, AND USE” (TYK Medicines, Inc., priority 2023, dated 2025)
Read-outs that look alike come from different tables or passages of the source. One block for each compound: values may come before it.

Assays:
[1] = Solid-state stability study (HPLC and XRPD analysis); format: physicochemical
[2] = 37 °C
[3] = Pharmacokinetic study in rats, single oral gavage; details: SD rats, 30 mpk
Procedure: SD rats received a single oral gavage administration of citrate crystalline form I, mesylate crystalline form I, and free base crystalline form I, respectively. Blood samples were collected at various time points to determine drug concentrations in rat plasma post administration of tested substance and calculate PK-related parameters.
The prepared test sample solutions were analyzed by the analytical department of the present test facility using LC-MS/MS.
Animals were fasted (≥10 h) with free access to water from the day before dosing. On the test day, rats were weighed respectively, marked at the tail, and blank blood samples were collected before administration. Blood was collected via tail vein.
0.1 mL of whole blood was collected into EDTA-Na2 anticoagulant tubes, inverted 3-4 times to mix well, centrifuged at 10,000 g, 4 °C for 5 min to separate plasma, and stored at - 80 °C until analysis. Blood was collected via tail vein.
Plasma samples were analyzed by the analytical department of the test facility using LC-MS/MS.

[4] = test system: exon 20 insertion mutations of EGFR and HER2; details: reported clinical trial results; cited from earlier work
[5] = day 0 (baseline before storage), mean of 3 parallel experiments

Appearance ([1]; 25°C/60%RH, day 3): Unchanged
Crystalline Form ([1]; 25°C/60%RH, day 3, XRPD): Unchanged
Purity % ([1]; 25°C/60%RH, day 3, open vial): 98.68%
Appearance ([1]; 25°C/60%RH, day 7): Unchanged
Crystalline Form ([1]; 25°C/60%RH, day 7, XRPD): Unchanged
Purity % ([1]; 25°C/60%RH, day 7, open vial): 98.66%
Appearance ([1]; 25°C/95±5%RH, day 3): Unchanged
Crystalline Form ([1]; 25°C/95±5%RH, day 3, XRPD): Unchanged
Purity % ([1]; 25°C/95±5%RH, day 3, open vial): 98.66%
Appearance ([1]; 25°C/95±5%RH, day 7): Unchanged
Crystalline Form ([1]; 25°C/95±5%RH, day 7, XRPD): Changed
Purity % ([1]; 25°C/95±5%RH, day 7, open vial): 98.67%
Appearance ([1]; 40°C/75%RH, day 3): Unchanged
Crystalline Form ([1]; 40°C/75%RH, day 3, XRPD): Unchanged
Purity % ([1]; 40°C/75%RH, day 3, open vial): 98.67%
Appearance ([1]; 40°C/75%RH, day 7): Unchanged
Crystalline Form ([1]; 40°C/75%RH, day 7, XRPD): Unchanged
Purity % ([1]; 40°C/75%RH, day 7, open vial): 98.64%
Appearance ([1]; 60 °C, day 3): Unchanged
Crystalline Form ([1]; 60 °C, day 3, XRPD): Unchanged
Purity % ([1]; 60 °C, day 3, open vial): 98.66%
Appearance ([1]; 60 °C, day 7): Unchanged
Crystalline Form ([1]; 60 °C, day 7, XRPD): Unchanged
Purity % ([1]; 60 °C, day 7, open vial): 98.68%
Appearance ([1]; 80 °C, day 1): Unchanged
Crystalline Form ([1]; 80 °C, day 1, XRPD): Unchanged
Purity % ([1]; 80 °C, day 1, open vial): 98.77%
Appearance ([1]; 80 °C, day 3): Unchanged
Crystalline Form ([1]; 80 °C, day 3, XRPD): Unchanged
Purity % ([1]; 80 °C, day 3, open vial): 98.66%
Purity % [1, 5]: 98.83%
changes under other conditions ([1]; storage conditions other than 25 °C /90±5%RH): no significant changes were observed
Solubility ([2]; FaSSIF, 0.5 h, 30 min): > 5030 µg/mL
Solubility ([2]; FaSSIF, 2 h, 120 min): > 5030 µg/mL
Solubility ([2]; FaSSIF, 24 h, 1440 min): 3450 µg/mL
Solubility ([2]; FeSSIF, 0.5 h, 30 min): > 5010 µg/mL
Solubility ([2]; FeSSIF, 2 h, 120 min): > 5010 µg/mL
Solubility ([2]; FeSSIF, 24 h, 1440 min): > 5010 µg/mL
Solubility ([2]; H2O, 0.5 h, 30 min): 1640 µg/mL
Solubility ([2]; H2O, 2 h, 120 min): 1620 µg/mL
Solubility ([2]; H2O, 24 h, 1440 min): 1840 µg/mL
Solubility ([2]; SGF, 0.5 h, 30 min): > 5010 µg/mL
Solubility ([2]; SGF, 2 h, 120 min): > 5010 µg/mL
Solubility ([2]; SGF, 24 h, 1440 min): > 5010 µg/mL
Compound: C=CC(=O)Nc1cc(Nc2ncc(C(=O)OC(C)C)c(-c3cn(C)c4ccccc34)n2)c(OC)cc1N(C)[C@@H]1[C@@H]2CN(C)C[C@@H]21 [Maleate crystalline form II]
Crystalline Form ([1]; after 7 days, 25 °C /90±5%RH): transformed into an unstable hydrate of maleate

Appearance ([1]; 25°C/60%RH, day 3): Unchanged
Crystalline Form ([1]; 25°C/60%RH, day 3, XRPD): Unchanged
Purity % ([1]; 25°C/60%RH, day 3, open vial): 98.19%
Appearance ([1]; 25°C/60%RH, day 7): Unchanged
Crystalline Form ([1]; 25°C/60%RH, day 7, XRPD): Unchanged
Purity % ([1]; 25°C/60%RH, day 7, open vial): 98.24%
Appearance ([1]; 25°C/95±5%RH, day 3): Unchanged
Crystalline Form ([1]; 25°C/95±5%RH, day 3, XRPD): Unchanged
Purity % ([1]; 25°C/95±5%RH, day 3, open vial): 98.17%
Appearance ([1]; 25°C/95±5%RH, day 7): Unchanged
Crystalline Form ([1]; 25°C/95±5%RH, day 7, XRPD): Unchanged
Purity % ([1]; 25°C/95±5%RH, day 7, open vial): 98.20%
Appearance ([1]; 40°C/75%RH, day 3): Unchanged
Crystalline Form ([1]; 40°C/75%RH, day 3, XRPD): Unchanged
Purity % ([1]; 40°C/75%RH, day 3, open vial): 98.17%
Appearance ([1]; 40°C/75%RH, day 7): Unchanged
Crystalline Form ([1]; 40°C/75%RH, day 7, XRPD): Unchanged
Purity % ([1]; 40°C/75%RH, day 7, open vial): 98.16%
Appearance ([1]; 60 °C, day 3): Unchanged
Crystalline Form ([1]; 60 °C, day 3, XRPD): Unchanged
Purity % ([1]; 60 °C, day 3, open vial): 98.15%
Appearance ([1]; 60 °C, day 7): Unchanged
Crystalline Form ([1]; 60 °C, day 7, XRPD): Unchanged
Purity % ([1]; 60 °C, day 7, open vial): 98.12%
Appearance ([1]; 80 °C, day 1): Unchanged
Crystalline Form ([1]; 80 °C, day 1, XRPD): Unchanged
Purity % ([1]; 80 °C, day 1, open vial): 98.38%
Appearance ([1]; 80 °C, day 3): Unchanged
Crystalline Form ([1]; 80 °C, day 3, XRPD): Unchanged
Purity % ([1]; 80 °C, day 3, open vial): 98.24%
Purity % [1, 5]: 98.50%
Crystalline Form ([1]; under all five storage conditions): remained unchanged
solubility at 0.5 h (physchem; fessif): > 5010 µg/mL
solubility at 2 h (physchem; fessif): > 5010 µg/mL
solubility at 24 h (physchem; fessif): > 5010 µg/mL
solubility at 0.5 h (physchem; sgf): > 5000 µg/mL
solubility at 2 h (physchem; sgf): > 5000 µg/mL
solubility at 24 h (physchem; sgf): > 5000 µg/mL
Solubility ([2]; FaSSIF, 0.5 h, 30 min): >5000 µg/mL
Solubility ([2]; FaSSIF, 2 h, 120 min): > 5000 µg/mL
Solubility ([2]; FaSSIF, 24 h, 1440 min): 3410 µg/mL
Solubility ([2]; H2O, 0.5 h, 30 min): >5000 µg/mL
Solubility ([2]; H2O, 2 h, 120 min): > 5000 µg/mL
Solubility ([2]; H2O, 24 h, 1440 min): > 5000 µg/mL
in vivo exposure in rats compared with free base crystalline form I [3]: higher
AUC0-last ([3]; plasma, 30 mg/kg): 1811.31 ng·h/mL
Cmax ([3]; plasma, 30 mg/kg): 222.5 ng/mL
T1/2 ([3]; plasma, 30 mg/kg): 2.54 h
Tmax ([3]; plasma, 30 mg/kg): 3 h
Compound: C=CC(=O)Nc1cc(Nc2ncc(C(=O)OC(C)C)c(-c3cn(C)c4ccccc34)n2)c(OC)cc1N(C)[C@@H]1[C@@H]2CN(C)C[C@@H]21 [Mesylate crystalline form I]

Compound: C=CC(=O)Nc1cc(Nc2ncc(C(=O)OC(C)C)c(-c3cn(C)c4ccccc34)n2)c(OC)cc1N(C)CCN(C)C [TAK-788]
objective response rate [4]: 43%
